Results reported in publication PMC5766510, “Development of a PET radioligand for potassium channels to image CNS demyelination” (Scientific Reports, 2018).
Read-outs that look alike come from different tables or passages of the source.

Assays:
[1] = Parallel artificial membrane permeability assay (PAMPA); details: for Papp: PAMPA
[2] = Stability in mouse plasma; details: after 1 h
[3] = molecular target: non-inactivating Shaker channel from D. melanogaster (Drosophila melanogaster, UniProt P08510, DEL6-46); test: cell-based; details: relative K^+ current at +20 mV, Hill equation fit; read-out: Half-maximal inhibitory concentration (IC50)
Sequence of non-inactivating Shaker channel from D. melanogaster (P08510 other isoform, or with tags, fused parts or gaps DEL6-46): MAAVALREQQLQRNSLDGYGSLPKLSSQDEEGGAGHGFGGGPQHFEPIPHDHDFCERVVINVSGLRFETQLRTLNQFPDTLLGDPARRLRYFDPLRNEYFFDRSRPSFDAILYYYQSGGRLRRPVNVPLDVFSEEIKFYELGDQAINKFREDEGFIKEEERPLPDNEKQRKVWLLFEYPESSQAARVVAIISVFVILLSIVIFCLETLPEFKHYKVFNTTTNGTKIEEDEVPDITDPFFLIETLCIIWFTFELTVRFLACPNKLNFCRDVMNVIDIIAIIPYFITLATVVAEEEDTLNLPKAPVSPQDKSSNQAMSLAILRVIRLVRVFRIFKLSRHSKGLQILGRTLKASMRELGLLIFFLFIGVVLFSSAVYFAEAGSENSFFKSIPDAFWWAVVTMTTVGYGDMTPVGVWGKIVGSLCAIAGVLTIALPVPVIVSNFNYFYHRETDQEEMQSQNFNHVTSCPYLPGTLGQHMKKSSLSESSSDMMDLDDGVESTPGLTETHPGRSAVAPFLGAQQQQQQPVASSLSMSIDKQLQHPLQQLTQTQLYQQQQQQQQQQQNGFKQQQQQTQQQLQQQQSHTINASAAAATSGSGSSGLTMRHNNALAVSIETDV
Procedure: See SI for additional details.
(§1) CI95 = [Upper Limit. Lower Limit]; where Upper Limit = 10^(logEC50+s.d.) and Lower Limit = 10^(logEC50−s.d.). […]
exchanging the external solution (top and guard chambers) several times. After application, cells were voltage-clamped at least 5 min at 0mV, then voltage-clamped at -80mV for 1-2 min.
K+ currents were generated by applying series of 50 ms pulses from -70 mV to +40 mV in increments of 10 mV. The effect of the drug was assessed by measuring the relative intensity of the K+ current before and after applying varying drug concentration at a constant voltage (typically +20 mV) and at the end of the test-pulse. Data acquisition and analysis of the traces was performed using Gpatch software (Department of Anesthesiology, University of California, […]
Los Angeles). […]

[4] = tested on: voltage-gated K^+ channels; test: PET imaging in healthy Rhesus macaques; format: in vivo, Rhesus monkeys (macaca mulatta)
Procedure: Whole body PET/CT imaging was carried out on a Siemens mCT PET/CT. Monkeys were sedated with ketamine and intubated. Following intubation monkeys were placed in prone position on the scanner bed face forward with their head immobilized in a stereotaxic frame. The animals were then anesthetized with 1% isoflurane and kept under anesthesia throughout the whole procedure. A CT image was acquired first (approx. 5 min). After the CT, 5 mCi in 8 mL of saline of [^18F]3-F-4-AP was infused as a bolus through the cubital vein. Scans were obtained in list mode and reconstructed with a 3D ordinary Poisson OSEM algorithm as 30 frames of data (2 × 15 secs, 4 × 30 secs, 8 × 60 secs, 8 × 120 secs, 8 × 240 secs). All activities were decay-corrected to the time of injection of the radiopharmaceutical. Reconstructed images were processed using VivoQuant. ROIs for the major organs were hand drawn based on the CT and used to calculate time-activity curves.
Focused high-resolution brain imaging in Rhesus macaques: brain PET imaging was carried out on a Siemens HRRT PET scanner. Monkeys were sedated with ketamine and intubated. Following intubation monkeys were placed in prone position on the scanner bed face forward with their head immobilized in a stereotaxic frame. The animals were then anesthetized with 1% isoflurane and kept under anesthesia throughout the whole procedure. Monkeys received 5 mCi of [^18F]3-F-4-AP as a bolus through the cubital vein. Scans were obtained in list mode and reconstructed with a 3D ordinary Poisson OSEM algorithm as […] frames of data (8 × 15 secs, 8 × 30 secs, 16 × 60 secs, 16 × 120 secs, 16 × 240 secs). All activities were decay-corrected to the time of injection of the radiopharmaceutical. Reconstructed images were processed using VivoQuant. The Rhesus brain atlas from VivoQuant was fitted to the data and used to calculate time-activity curves for 43 different brain regions.

[5] = tested on: voltage-gated K^+ channels; test: PET/CT imaging in healthy rats; format: in vivo, rat
Description: In order to evaluate the potential use of [^18F]3-F-4-AP as a PET tracer for the brain, we conducted PET combined with computed tomography (PET/CT) imaging in healthy rats after tail vein injection of [^18F]3-F-4-AP (0.15–0.30 μCi/g). We chose rats instead of mice because their larger brain size allows better spatial resolution. […] In order to overcome the limited intrinsic resolution of PET, we conducted ex vivo autoradiography in rats injected with [^18F]3-F-4-AP (1–2 μCi/g).
PET/CT imaging studies were carried out on a Trifoil Triumph™ Trimodality Preclinical microPET/SPECT/CT Imaging System (Norridge, CA) equipped with a X-PET detector constructed from BGO crystals. Rats were anesthetized with a mixture of 2% isoflurane and […] and kept under anesthesia throughout the whole procedure. A CT image was acquired first (at 40 kV, 140-uA beam current, and 256 projections, approx. 5 min). After the CT, 50–150 µCi of [^18F]3-F-4-AP was infused as a bolus through a tail vein injection port and a 25, 30 or 90 min list-mode PET scan performed. PET data are acquired using a sensitivity 5.9%, 250- to 750-keV energy window and 12-ns timing window in list-mode format with spatial resolution of 1.6–2.0 mm (FWHM), which can be binned into 3-dimensional (3D) sinograms corresponding to total and true events, respectively. Images were reconstructed using Fourier rebinning followed by a 2-dimensional ordered-subsets expectation maximization algorithm (OSEM) (4 iterations with 15 subsets). Reconstructed images were processed by using VivoQuant (inviCRO, LLC, Boston) version 2.1. Time activity curves were generated by processing the PET data in 5 min frames.

[6] = tested on: K^+ channels in explanted mouse optic nerves; test: Compound action potential (CAP) of dissected mouse optic nerves; details: for EC50: increase of maximum CAP amplitude, dysmyelinated (Shiverer) optic nerves, 22.2 °C, read-out: Half-maximal effective concentration (EC50)
Procedure: Therefore, we tested the effects of these compounds on the compound action potential (CAP) of dysmyelinated optic nerves from control and Shiverer mice (Fig. 2E).
Optic nerves were dissected from 12–16 week old Shiverer (Mbp^shi/shi) and control mice (Mbp^+/shi and Mbp^+/+). Compound action potentials (CAP) were recorded using suction electrodes as described by Stys et al.[91]. See SI for additional details.
as §1
Dissection of optic nerves: Optic nerves were dissected from 12-16 week old Shiverer (Mbpshi/shi) and control mice (Mbp+/shi and Mbp+/+). Mice were euthanized by CO2 overdose and the optic nerves were quickly dissected between the eyeball and the optic chiasm. The nerves […]
Optic nerve electrophysiology: Compound action potentials (CAP) from dysmyelinated nerves (Shiverer mice, Mbpshi/shi) and myelinated nerves (litermate controls, Mbp+/shi and Mbp+/+) were […]
between two suction electrodes (stimulus and recording electrodes) forming a tight seal on each end. Two additional electrodes were placed in the bath for reference. A supramaximal pulse (250 mV, 20 μs) was applied at the stimulating end of the nerve. The resulting CAP was amplified from the recording electrode using a high impedance low-noise amplifier (EG&G Princeton Applied Research Corporation) sampled at 100 kHz and filtered at 10 kHz. To assess […]
concentrations to the recording chamber after the CAP was allowed to stabilize for 5 min while […]
pulsing repeatedly. After each measurement, the chamber was washed for 5 min (flow 1 […]
mL/min) with oxygenated aCSF. […]
conduction and the temperature was monitored throughout the experiment. CAP recordings were acquired with a SBC6711 board (Innovative Integration) controlled by in-house written software. Analysis of the traces was done using an in-house software. The half-maximal […]
amplitude vs. concentration and fitted to the Hill equation using Origin. […]
Compound action potential of nerve recorded by suction electrode: a theoretical and experimental analysis. […]

[7] = Partition coefficient octanol-water (logD); format: physicochemical
Procedure: The partition coefficient octanol-water at pH 7.4 was measured by adding 0.1 mg of the compound to a 10 mL 50:50 mixture of octanol:PBS. The vial was shaken vigorously followed by 1 min centrifugation at 1,000 g to separate the phases. The drug concentration in each phase of the drug was calculated from the area under the peak on reverse phase HPLC (10 μL sample) using a calibration curve.

[8] = in vitro; details: mouse
[9] = tested on: C57Bl/6 J mice; test: In vivo effects (signs of neuroexcitation) after intraperitoneal injection; details: mouse, different doses
Procedure: In this experiment, we injected each drug intraperitoneally at different concentrations into mice and looked for signs of neuroexcitation (Fig. 3B).
10-week-old female C57Bl/6 J mice were given an intraperitoneal injection of the drug under investigation and monitored continuously for 4 h. […] At least 72 h passed between injections to the same mice.

[10] = mouse, 1 h
[11] = estimated; cited from earlier work
[12] = Organ distribution of PET tracer in mice by gamma counting; format: in vivo; details: mouse, 30 min post intravenous injection, n = 4
Procedure: Once we had generated the ^18F-labeled drug, we evaluated the uptake of the tracer in mouse blood, brain, liver and kidneys 30 min and 2 h post intravenous administration using automatic gamma counting. […] The uptake in the brain 30 min post injection was higher than blood (standard uptake value (SUV) = 4.71 ± 0.81 vs. 3.27 ± 0.35, n = 4, P = 0.024) providing a suitable time window to conduct PET imaging studies.
50–60 uCi of the [^18F]3-F-4-AP tracer was injected via tail vein to eight 8-week-old female B6 albino mice. At the specified times, the mice were euthanized by anesthetic overdose. Following euthanasia blood was collected by cardiac puncture and transferred to EDTA coated tubes. Other organs (brain, liver and kidneys) were collected by dissection and transferred to glass tubes. Radioactivity was measured using an automatic gamma counter (^18F protocol) and corrected for organ weight and injected dose. Using the original tracer solution, 8 standard solutions ranging from 20 μCi to 10^−5 μCi were prepared, analyzed by gamma counting and used as a calibration curve to correlate peak area of the samples to concentration. SUV was calculated as SUV = (dose organ/organ weight)/(dose injected/body weight) with dose corrected for decay.

[13] = tested on: voltage-gated K^+ channels; test: Detection of demyelination by PET in LPC-injected rats; format: in vivo, rat; details: PET 0-25 min
Procedure: After conducting PET imaging with [^18F]3-F-4-AP in healthy rats, we sought to evaluate the capability of this tracer to detect demyelination using the LPC-injection model. The main advantages of this model are that the localization of the lesion is known, that the time course of demyelination is well established, that there is no inflammation or disruption of the BBB, and that the signal in the lesioned area can be directly compared to the contralateral control area[69]. […] Rats were injected with 3 μL of saline (control group) or 1% LPC in saline (demyelination group) on the right side of the cerebellum, targeting the cerebellar white matter. Seven days post injection, which corresponds to the peak of demyelination, the animals were scanned using PET (0–25 min). Several hours after the PET scan, the animals were reinjected with [^18F]3F4AP and their brains studied by ex vivo autoradiography as previously described. Finally, following autoradiography the same tissue sections were stained with LFB. To analyze the data, we placed a spherical voxel of ~1.5 mm radius centered at the injection coordinates and compared the signal in this region with that of an equal size region at the contralateral hemisphere (Fig. 6A). […] Furthermore, there was excellent correlation between PET, ex vivo autoradiography and histological staining for myelin (Fig. 6C). For one animal, we performed serial autoradiography and staining throughout the whole cerebellum (Sup. Fig. 2). As shown in this figure, it is possible to clearly delineate where the lesion starts and finishes based on the autoradiographic signal.
A power analysis (power 0.8, α = 0.05) based on the autoradiography results was used to determine the number of rats needed to detect a statistically significant change in signal. Randomly selected rats were injected with lysolecithin or saline intracranially as described above. 0–25 min dynamic PET scan was performed 6–8 days post intracranial injection (peak of demyelination) after administration of 0.3–0.5 μCi/g. Within 24 h of the PET scan, the rats received a second dose of tracer (1–2 uCi/g), the animals were sacrificed 25 min post injection and their brains processed for autoradiography as described above. Image analyst was not blind to the treatment group. Post autoradiography, LFB staining was performed to assess demyelination. Animals showing physical damage to the brain due to the injection were excluded from the study. Brain ROI analysis was performed using reference atlas with VivoQuant version 2.1 (inviCRO, LLC, Boston).

[14] = LPC-injected rats, 7 days post injection, n = 4
[15] = saline (vehicle only)-injected rats, n = 3

## Nc1ccncc1F [3-F-4-AP, 3-fluoro-4-aminopyridine]
[1]
  Papp: 1.56 ± 0.06 ×10⁻⁶ cm/s
[1]; ratio of Pe
  times more permeable than 4-AP: 6.6 times
[2]
  remaining in plasma: > 90%
[3]
  IC50: 250 µM
[4]; Rhesus macaques, 0.1 mg/kg
  effect of cold drug (self-block) on brain signal: no changes in brain signal or time activity curves were detected
[4]; estimated based on the rodent data
  estimated seizure dose in monkeys: 1.5 to 3.0 mg/kg
[5]; rats
  effect of high doses of non-radiolabeled drug (self-block): caused the breathing rate to increase dramatically, possibly due to seizures
[6]
  EC50: 96 µM
[7]; pH 7.4, pH 7.4, n = 3, read-out: logD: experimental partition coefficient octanol:water
  logD: 0.63
[8]; microsomes
  half-life: 2.4 ± 0.183 h
[9]
  signs of neuroexcitation, summary in words relative to 4-AP: active at the same concentration as 4-AP and to act faster

## Nc1ccncc1 [4-AP, 4-aminopyridine]
[1]
  Papp: 0.236 ± 0.003 ×10⁻⁶ cm/s
[10]
  remaining in plasma: > 90%
[11]
  concentration in the cerebrospinal fluid of patients taking the drug: around 50 nM
[6]; dysmyelinated nerves
  increases of the CAP amplitude: 2–4 fold
[6]
  EC50: 59.2 µM
[6]; normally myelinated nerves
  increases in amplitude and duration of the action potential: < 5%
[7]; pH 7.4
  logD: experimental partition coefficient octanol:water: 0.21
[7]; pH 7.4, logD: experimental partition coefficient octanol:water
  logD: 0.23
[8]; liver microsomes
  half-life: 0.883 ± 0.167 h

## Nc1ccncc1[18F] [[^18F]3-F-4-AP]
[12]
  standard uptake value (SUV) in blood: 3.27 ± 0.35
  standard uptake value (SUV) in brain: 4.71 ± 0.81
[4]; Rhesus macaques
  peak SUV in selected brain regions: 3.2–5.5
  time of peak SUV in selected brain regions: 2 to 5 min
[4]; Rhesus macaques, within the first five minutes
  peak SUV for the whole brain: around 4
[4]; Rhesus macaques, lack of bone uptake
  defluorination in vivo: not defluorinated in vivo
[5]; healthy rats, 0-90 min scan
  time of peak in brain time-activity curve: ≤ 5 min
[5]; healthy rats, 0 to 30 min
  SUV in cerebellum: 2.09 ± 0.44
  SUV in cortex: 3.24 ± 0.70
[5]; healthy rats, 0 to 30 min, n = 3
  mean SUV for the whole brain: 2.91 ± 0.65
[5]; rats, no radioactivity in skull, teeth or bone
  defluorination in vivo: does not undergo defluorination in vivo
[13]; [14]
  SUV, control side of cerebellum: 2.60 ± 0.21
  SUV, injected side of cerebellum: 3.54 ± 0.53
[13]; [15]
  SUV, control side of cerebellum: 2.67 ± 0.77
  SUV, injected side of cerebellum: 2.59 ± 0.78
